Reference: patent publication US20170029841A1, “METHODS AND COMPOSITIONS FOR SELECTIVE REGULATION OF PROTEIN EXPRESSION” (priority 2015, published 2017)

Test system: maize tissue pools (tassel, ear, leaf, root, stem)
Assay: siRNA profiling microarray assay of mts-siRNA sequences across maize tissues
Conditions: for 01DKD2 V8-V9 Tassel relative signal value: germplasm 01DKD2, V8-V9 tassel; for 01DKD2 V10-V12 Tassel relative signal value: germplasm 01DKD2, V10-V12 tassel; for 01DKD2 Other Tissue relative signal value: germplasm 01DKD2, combined signals from other tissue; for LH244 V8-V9 Tassel relative signal value: germplasm LH244, V8-V9 tassel; for LH244 V10-V12 Tassel relative signal value: germplasm LH244, V10-V12 tassel; for LH244 Other Tissue relative signal value: germplasm LH244, combined signals from other tissue
Description: A siRNA profiling microarray assay was performed using μParaflo® Microfluidics chips provided by LC Sciences LLC (Houston, Tex., USA) with 1,200 sequences selected from the thousands of mts-siRNA sequences identified from the differential bioinformatic analysis. The microarray chips contained triplicate probes of the complementary sequence for each of the 1,200 mts-siRNA sequences. Total RNA was purified from 26 maize tissue pools (duplicate or triplicate tissue pools) from either LH244 (ATCC deposit number PTA-1173) or 01DKD2 (I294213) (ATCC deposit number PTA-7859) inbred plants. Each of the 26 RNA samples were hybridized with the microarray chips that contain probes for the 1,200 mts-siRNA. Hybridization images were collected using a GenePix® 4000B laser scanner (Molecular Devices, Sunnyvale, Calif.) and digitized using Array-Pro® Analyzer image analysis software (Media Cybernetics, Rockville, Md.). Relative signal values were derived by background subtraction and normalization. Differentially expressed signals were determined by t-test with p<0.05. From the microarray analysis, about 500 mts-siRNA from the 1,200 were identified as being highly tassel-specific.
Selected mts-siRNA sequences aligning to one of the six cDNA sequences were used for further microarray analysis to determine differential expression across maize tissues. Microarray analysis for mts-siRNA sequences of normalized signal values for V8-V9 tassel, V10-V12 tassel, or combined signals from the other tissue for maize germplasm LH244 and 01DKD2 is presented in Tables 3-10. […] Signal value results are measured as relative signal values and standard error (p<0.05) is represented by (STDR). […] The mts-siRNA sequence corresponds to the sense or antisense strand of the corresponding mts-siRNA target sequence in the cDNA sequence. The mts-siRNA sequence may have a single nucleotide, a two nucleotide, or a three nucleotide mismatch with the aligned portion of the cDNA sequence, and the mts-siRNA sequence may align to the sense strand or antisense strand of the cDNA sequence. The mts-siRNA sequences provided here are found across different maize germplasms.

SEQ ID NO: 43: mts-siRNA sequence aligning to cDNA SEQ ID NO: 19 (AGCACTCGAGCTTTCACGCCAACA; expressed or natural sequence)
01DKD2 V8-V9 Tassel relative signal value: 4 | 01DKD2 V10-V12 Tassel relative signal value: 190.5 | 01DKD2 Other Tissue relative signal value: 4.3 | LH244 V8-V9 Tassel relative signal value: 52.5 | LH244 V10-V12 Tassel relative signal value: 147.3 | LH244 Other Tissue relative signal value: 1

SEQ ID NO: 44: mts-siRNA sequence aligning to cDNA SEQ ID NO: 19 (TTGGCGTGAAAGCTCGAGTGCTCC; expressed or natural sequence)
01DKD2 V8-V9 Tassel relative signal value: 15.5 | 01DKD2 V10-V12 Tassel relative signal value: 1443.5 | 01DKD2 Other Tissue relative signal value: 6.3 | LH244 V8-V9 Tassel relative signal value: 756 | LH244 V10-V12 Tassel relative signal value: 1340 | LH244 Other Tissue relative signal value: 1.8

SEQ ID NO: 45: mts-siRNA sequence aligning to cDNA SEQ ID NO: 19 (TAAATGGTCGTCGTATTAGCTGAT; expressed or natural sequence)
01DKD2 V8-V9 Tassel relative signal value: 253 | 01DKD2 V10-V12 Tassel relative signal value: 7195.5 | 01DKD2 Other Tissue relative signal value: 5.8 | LH244 V8-V9 Tassel relative signal value: 7901 | LH244 V10-V12 Tassel relative signal value: 9982.3 | LH244 Other Tissue relative signal value: 8.2

SEQ ID NO: 46: mts-siRNA sequence aligning to cDNA SEQ ID NO: 19 (CAGCTAATACGACGACCATTTAGG; expressed or natural sequence)
01DKD2 V8-V9 Tassel relative signal value: 252 | 01DKD2 V10-V12 Tassel relative signal value: 6778 | 01DKD2 Other Tissue relative signal value: 6.8 | LH244 V8-V9 Tassel relative signal value: 4502.5 | LH244 V10-V12 Tassel relative signal value: 8663.3 | LH244 Other Tissue relative signal value: 8.4

SEQ ID NO: 47: mts-siRNA sequence aligning to cDNA SEQ ID NO: 19 (TGGTGTGGTCGTTAGCTACTTTA; expressed or natural sequence)
01DKD2 V8-V9 Tassel relative signal value: 12.5 | 01DKD2 V10-V12 Tassel relative signal value: 1051.5 | 01DKD2 Other Tissue relative signal value: 4 | LH244 V8-V9 Tassel relative signal value: 157.5 | LH244 V10-V12 Tassel relative signal value: 900.7 | LH244 Other Tissue relative signal value: 15.5

SEQ ID NO: 48: mts-siRNA sequence aligning to cDNA SEQ ID NO: 19 (AAAGTAGCTAACGACCACACCACC; expressed or natural sequence)
01DKD2 V8-V9 Tassel relative signal value: 9.5 | 01DKD2 V10-V12 Tassel relative signal value: 470.5 | 01DKD2 Other Tissue relative signal value: 1 | LH244 V8-V9 Tassel relative signal value: 221 | LH244 V10-V12 Tassel relative signal value: 720.3 | LH244 Other Tissue relative signal value: 4.8

SEQ ID NO: 49: mts-siRNA sequence aligning to cDNA SEQ ID NO: 19 (TACTACTACTCCCTTCTCGG; expressed or natural sequence)
01DKD2 V8-V9 Tassel relative signal value: 57.5 | 01DKD2 V10-V12 Tassel relative signal value: 867 | 01DKD2 Other Tissue relative signal value: 55.3 | LH244 V8-V9 Tassel relative signal value: 340 | LH244 V10-V12 Tassel relative signal value: 1241.7 | LH244 Other Tissue relative signal value: 16.3

SEQ ID NO: 50: mts-siRNA sequence aligning to cDNA SEQ ID NO: 19 (CTGATATCTATGCTAATTCAGG; expressed or natural sequence)
01DKD2 V8-V9 Tassel relative signal value: 5.5 | 01DKD2 V10-V12 Tassel relative signal value: 326 | 01DKD2 Other Tissue relative signal value: 1.8 | LH244 V8-V9 Tassel relative signal value: 296 | LH244 V10-V12 Tassel relative signal value: 722 | LH244 Other Tissue relative signal value: 0

SEQ ID NO: 51: mts-siRNA sequence aligning to cDNA SEQ ID NO: 19 (TGCCGAAGTGTGTCGTGACATTGG; expressed or natural sequence)
01DKD2 V8-V9 Tassel relative signal value: 24.5 | 01DKD2 V10-V12 Tassel relative signal value: 275.5 | 01DKD2 Other Tissue relative signal value: 40 | LH244 V8-V9 Tassel relative signal value: 158 | LH244 V10-V12 Tassel relative signal value: 287 | LH244 Other Tissue relative signal value: 34.3

SEQ ID NO: 52: mts-siRNA sequence aligning to cDNA SEQ ID NO: 19 (CTGATATCTATGCTAATTCAGG; expressed or natural sequence)
01DKD2 V8-V9 Tassel relative signal value: 234 | 01DKD2 V10-V12 Tassel relative signal value: 3286.5 | 01DKD2 Other Tissue relative signal value: 3.5 | LH244 V8-V9 Tassel relative signal value: 4080 | LH244 V10-V12 Tassel relative signal value: 3629.7 | LH244 Other Tissue relative signal value: 5.5

SEQ ID NO: 53: mts-siRNA sequence aligning to cDNA SEQ ID NO: 20 (CCATGTAATACACAGTGTCGTC; expressed or natural sequence)
01DKD2 V8-V9 Tassel relative signal value: 16 | 01DKD2 V10-V12 Tassel relative signal value: 84 | 01DKD2 Other Tissue relative signal value: 1.5 | LH244 V8-V9 Tassel relative signal value: 76.5 | LH244 V10-V12 Tassel relative signal value: 145 | LH244 Other Tissue relative signal value: 2.2

SEQ ID NO: 54: mts-siRNA sequence aligning to cDNA SEQ ID NO: 20 (CATCGTCGTGCAGCTGGT; expressed or natural sequence)
01DKD2 V8-V9 Tassel relative signal value: 56 | 01DKD2 V10-V12 Tassel relative signal value: 231 | 01DKD2 Other Tissue relative signal value: 19.5 | LH244 V8-V9 Tassel relative signal value: 100.5 | LH244 V10-V12 Tassel relative signal value: 172 | LH244 Other Tissue relative signal value: 14.2

SEQ ID NO: 55: mts-siRNA sequence aligning to cDNA SEQ ID NO: 20 (CGGACATTTGCAGTTCTATGGT; expressed or natural sequence)
01DKD2 V8-V9 Tassel relative signal value: 73 | 01DKD2 V10-V12 Tassel relative signal value: 405.5 | 01DKD2 Other Tissue relative signal value: 1 | LH244 V8-V9 Tassel relative signal value: 377.5 | LH244 V10-V12 Tassel relative signal value: 581.7 | LH244 Other Tissue relative signal value: 1.1

SEQ ID NO: 56: mts-siRNA sequence aligning to cDNA SEQ ID NO: 20 (TACACAGTGTCGTCCTCTTCGT; expressed or natural sequence)
01DKD2 V8-V9 Tassel relative signal value: 138.5 | 01DKD2 V10-V12 Tassel relative signal value: 599.5 | 01DKD2 Other Tissue relative signal value: 19.3 | LH244 V8-V9 Tassel relative signal value: 261 | LH244 V10-V12 Tassel relative signal value: 692 | LH244 Other Tissue relative signal value: 49.5

SEQ ID NO: 57: mts-siRNA sequence aligning to cDNA SEQ ID NO: 20 (GACATTTGCAGTTCTATGGTGT; expressed or natural sequence)
01DKD2 V8-V9 Tassel relative signal value: 29 | 01DKD2 V10-V12 Tassel relative signal value: 134.5 | 01DKD2 Other Tissue relative signal value: 3.8 | LH244 V8-V9 Tassel relative signal value: 126.5 | LH244 V10-V12 Tassel relative signal value: 248 | LH244 Other Tissue relative signal value: 2.4

SEQ ID NO: 58: mts-siRNA sequence aligning to cDNA SEQ ID NO: 20 (CGAGGTACCAACTAACATCGGT; expressed or natural sequence)
01DKD2 V8-V9 Tassel relative signal value: 88.5 | 01DKD2 V10-V12 Tassel relative signal value: 327 | 01DKD2 Other Tissue relative signal value: 2 | LH244 V8-V9 Tassel relative signal value: 215.5 | LH244 V10-V12 Tassel relative signal value: 349 | LH244 Other Tissue relative signal value: 0.7

SEQ ID NO: 59: mts-siRNA sequence aligning to cDNA SEQ ID NO: 20 (ATGCCAAAGGTACCGATGTTAG; expressed or natural sequence)
01DKD2 V8-V9 Tassel relative signal value: 202 | 01DKD2 V10-V12 Tassel relative signal value: 811.5 | 01DKD2 Other Tissue relative signal value: 0.3 | LH244 V8-V9 Tassel relative signal value: 789 | LH244 V10-V12 Tassel relative signal value: 1262.7 | LH244 Other Tissue relative signal value: 4.1

SEQ ID NO: 60: mts-siRNA sequence aligning to cDNA SEQ ID NO: 20 (CGTCGTGCAGCTGGTCACCGGT; expressed or natural sequence)
01DKD2 V8-V9 Tassel relative signal value: 75.5 | 01DKD2 V10-V12 Tassel relative signal value: 303 | 01DKD2 Other Tissue relative signal value: 9.3 | LH244 V8-V9 Tassel relative signal value: 141.5 | LH244 V10-V12 Tassel relative signal value: 265.7 | LH244 Other Tissue relative signal value: 5.8

SEQ ID NO: 61: mts-siRNA sequence aligning to cDNA SEQ ID NO: 21 (CTGTGATGTAGAAGCCCAGAC; expressed or natural sequence)
01DKD2 V8-V9 Tassel relative signal value: 461 | 01DKD2 V10-V12 Tassel relative signal value: 454 | 01DKD2 Other Tissue relative signal value: 8 | LH244 V8-V9 Tassel relative signal value: 850.5 | LH244 V10-V12 Tassel relative signal value: 334.7 | LH244 Other Tissue relative signal value: 9.4

SEQ ID NO: 62: mts-siRNA sequence aligning to cDNA SEQ ID NO: 21 (CAAATGAGTCATCGAAGCTGT; expressed or natural sequence)
01DKD2 V8-V9 Tassel relative signal value: 13.5 | 01DKD2 V10-V12 Tassel relative signal value: 15.5 | 01DKD2 Other Tissue relative signal value: 1 | LH244 V8-V9 Tassel relative signal value: 44.5 | LH244 V10-V12 Tassel relative signal value: 11.3 | LH244 Other Tissue relative signal value: 1.8
